The test system of one data set is OCI-AML2 cells. Kind of data set: Viability measurements, OCI-AML2 cells. In kind it is cell-based. Here is the method:
(§1) Cells were seeded in a transparent-bottom, black 96-well plate, at 15,000 cells per well in sixfold replications. in 90 µl of medium and left to adhere for at least 4 h. The cells were then treated with the respective compound by adding 10 µl of medium–-compound mixture for a final volume of 100 µl in each well. Cell-Titer blue reagent was used to measure viability according to the manufacturer’s instructions. Plate reader measurements were performed on a Tecan Spark Control 10 M fluorescence system.

In the next data set the test system is Mino cells. Kind of data set: Viability measurements, Mino cells. To be noted: Mino, 72 h. In kind it is cell-based. Here is the method:
as §1

Data set [1] concerns the target T1, Keap1 (Homo sapiens, UniProt Q14145). Put plainly: Immunostaining of endogenous Keap1 puncta in U2OS cells. In kind it is cell-based. Details: We visualized the subcellular localization of endogenous Keap1 following PINCH treatment by immunofluorescence in U2OS cells; endogenous in cells; host or cells: U2OS (ATCC HTB-96). The conditions noted are these: 250 nM. The protocol:
The cells were then blocked with 5% BSA for 60 min at room temperature. Cells were stained with primary antibody, at a concentration of 1:100, for 3 h at room temperature and were then subjected to a secondary antibody conjugated to Alexa Fluor, at a concentration of 1:100–500, for 1 h at room temperature. Lastly, cells were also stained with DAPI for 10 min at room temperature.
Imaging of the cells was performed using a Dragonfly spinning disk confocal system (Andor Technology) connected to an inverted Leica Dmi8 microscope (Leica Microsystems). The signals were detected using a scientific complementary metal–oxide–semiconductor Zyla (Andor) 2,048 × 2,048 camera and the bit depth was 16. At the specified intervals, Z stacks (0.17 µm) of selected cells were acquired with an HC PL APO ×63/1.3 GLYC CORR CS2 objective (506353, Leica Microsystems).
Automatic aggregate segmentation was conducted using the surface module with manual threshold fixed for all images of the same experiment (default 2-pixel smoothing, background subtraction with 0.9-μm largest sphere, morphological split with 0.5-μm seed point diameter). […]
Spots were considered colocalized if their centers were up to 1 μm apart. We manually segmented each cell in 3D using the Surface module and quantified the number percentage and the total puncta volume percentage of colocalized spots for each cell.

The subject of the next data set is U2OS cells. Kind of data set: Viability measurements, U2OS cells. In kind it is cell-based. Here is the method: as §1
For the next data set, the system named is NQO1 expression. Put plainly: qPCR for NQO1 expression in OCI-AML2 cells after washout. In kind it is cell-based. The conditions noted are these: OCI-AML2, 250 nM 20 h, from 48 h after treatment. Here is the method: Cells were treated with either DMSO or compound at 250 nM, followed by washing out the treated medium after 20 h and reseeding in fresh medium. Cells were then collected at several time points post washout. Total RNA was extracted using RNeasy mini kit (Qiagen, 74104). […] PCR amplification was carried out in Step-One Plus thermocycler (Applied Biosystems). Relative quantification was performed using standard curves. GAPDH was used for normalization.
(Quantitative PCR measures a nucleic acid by following its amplification.)

The test system of another data set is Nrf2. Put plainly: WB of Nrf2. In kind it is cell-based. The conditions noted are these: U2OS cells, 20 h compound treatment.
For another data set, the target named is T2, recombinant Keap1 BTB (Homo sapiens, UniProt Q14145, S172A).
T2 construct: The Keap1 BTB domain (48–180) encoding the single substitution S172A was cloned into pET28-bdSumo vector; His–bdSumo (N, cleaved yes); made in house; host or cells: E. coli BL21(DE3)
T2 sequence (Q14145 48-180 S172A): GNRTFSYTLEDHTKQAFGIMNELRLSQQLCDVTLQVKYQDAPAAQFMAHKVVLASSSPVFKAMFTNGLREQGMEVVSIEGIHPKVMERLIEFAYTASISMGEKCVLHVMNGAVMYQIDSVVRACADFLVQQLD
Kind of data set: In vitro crosslinking of Keap1 BTB using GA. In kind it is biochemical. To be noted: 50 µM Keap1, 50 µM compound. Here is the method:
Recombinant Keap1 samples were incubated at room temperature in desired conditions in a buffer containing 25 mM HEPES, 150 mM NaCl pH 8, 1 mM TCEP and 0.01% Tween. At the selected time point, each sample was treated with a 7.5% aqueous solution of GA (prepared fresh) for a final GA concentration of 0.125% and mixed gently. The crosslinking reaction was left at room temperature for 40 min, followed by addition of NuPage gel sample buffer with 20 mM DTT and boiling at 95 °C for 5 min. Lastly, 2–3 μg of each sample was loaded and run on an SDS–PAGE gel. Bands were visualized using a Coomassie blue solution.

Data set [2] deals with T1, Keap1. Kind of data set: WB of Keap1 in OCI-AML2 cells (soluble/insoluble phase). In kind it is cell-based. On the set-up: endogenous in cells; host or cells: OCI-AML2. The protocol:
Cells were incubated with DMSO at 0.1% or with compound in concentrations ranging 10–20,000 nM for 20 h unless indicated differently. Following incubation, lysis was performed in RIPA buffer and the samples were measured for total protein quantification by BCA assay (Thermo Fisher Scientific, 23225). Then, 20–40 μg of each sample was loaded and run on an SDS–PAGE gel, before transferring onto a nitrocellulose membrane using a Trans-Blot Turbo system (Bio-Rad) and blocking using a 5% BSA in TBS-T (w/v) solution for 1 h at room temperature. Incubation with primary antibodies (mouse anti-BCL-6 (sc-7388, Santa Cruz, 1:500; overnight at 4 °C), mouse anti-Keap1 (sc-365626, Santa Cruz, 1:500; overnight at 4 °C), rabbit anti-LDHA (4H18L6, Thermo Fisher, 1:1,000; overnight at 4 °C), mouse anti-NQO2 (sc-271665, Santa Cruz, 1:500; overnight at 4 °C), rabbit anti-c-Myc (5605, Cell Signaling, 1:1,000; overnight at 4 °C) and mouse anti-β-actin (3700, Cell Signaling, 1:1,000; 1 h at room temperature) was performed and then the membranes were washed and incubated with a horseradish-peroxidase-conjugated secondary antibody (mouse 7076/rabbit 7074, Cell Signaling) at room temperature for 1 h. Imaging of the chemiluminescence signal was performed using a ChemiDoc XRS+ instrument (Bio-Rad). Primary band quantifications were normalized against β-actin bands.

The subject of a further data set is HEK 293 cells. Put plainly: Viability measurements, HEK 293 cells. In kind it is cell-based. To be noted: HEK 293, 72 h. Here is the method:
as §1

Another data set concerns Ramos cells. Put plainly: Viability measurements, Ramos cells. The conditions noted are these: Ramos, 72 h. In kind it is cell-based. The protocol: as §1

We go through 1 compound from paper PMC13503280, “A pharmacological modality to sequester homomeric proteins” (Nature Chemical Biology, 2026).

T1 sequence (Q14145 whole entry): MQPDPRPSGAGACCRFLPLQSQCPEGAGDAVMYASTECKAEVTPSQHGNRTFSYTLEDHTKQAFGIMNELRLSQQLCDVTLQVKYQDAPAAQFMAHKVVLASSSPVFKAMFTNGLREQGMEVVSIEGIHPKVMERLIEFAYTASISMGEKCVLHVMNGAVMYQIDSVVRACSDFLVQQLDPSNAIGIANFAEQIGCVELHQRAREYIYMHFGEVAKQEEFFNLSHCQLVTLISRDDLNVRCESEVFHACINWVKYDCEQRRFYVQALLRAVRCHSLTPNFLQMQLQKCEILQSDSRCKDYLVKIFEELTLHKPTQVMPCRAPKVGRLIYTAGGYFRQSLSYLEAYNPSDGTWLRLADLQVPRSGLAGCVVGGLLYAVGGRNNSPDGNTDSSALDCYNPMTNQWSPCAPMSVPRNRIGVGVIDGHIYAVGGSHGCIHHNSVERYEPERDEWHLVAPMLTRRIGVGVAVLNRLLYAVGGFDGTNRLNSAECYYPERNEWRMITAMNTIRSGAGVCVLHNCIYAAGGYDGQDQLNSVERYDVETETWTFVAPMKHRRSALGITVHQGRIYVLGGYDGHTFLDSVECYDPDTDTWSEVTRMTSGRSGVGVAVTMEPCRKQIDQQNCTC

For orientation: IC50 means the midpoint of a concentration-inhibition curve. A low value points to greater potency. Usually EC50 stands for the concentration that produces a half-maximal response. As to `CC1(C)CCC2(C(=O)NCCOCCOCCNC(=O)C34CCC(C)(C)CC3C3C(=O)C=C5C6(C)C=C(C#N)C(=O)C(C)(C)C6CCC5(C)C3(C)CC4)CCC3(C)C(C(=O)C=C4C5(C)C=C(C#N)C(=O)C(C)(C)C5CCC43C)C2C1` (stereo not drawn) [EL133], the IC50 in the data set on OCI-AML2 cells (Homo sapiens, OCI-AML2, 72 h) turned out to be 265 nM; with U2OS cells (Homo sapiens, 72 h), 254 nM. In addition, the “difference in viability IC50 over BDX” value is listed as “fourfold” with OCI-AML2 cells (OCI-AML2) and “threefold” with U2OS cells. The “additional viability loss compared with BDX” value in the data set on Mino cells, in the data set with HEK 293 cells and with Ramos cells was “no additional viability loss” throughout. The “Keap1 puncta (immunofluorescence)” value on Keap1 [1] was “bright punctate structures”. Further, the “duration of NQO1 upregulation after washout” value in the data set on NQO1 expression is “remained higher”. Besides, the “Nrf2 levels (WB)” value with Nrf2 is “Nrf2 upregulation”. In addition, the “higher-order assemblies after GA crosslinking (SDS–PAGE)” value at recombinant Keap1 BTB was “induced the formation of higher-order assemblies”. Moreover, on Keap1 [2] (OCI-AML2, 500 nM EL133 or 2.5 µM EL256 for 20 h, then washout), the “Keap1 in insoluble phase after washout (WB)” value is reported as “remained accumulated in the insoluble phase for up to the 96 h”. Further, the “rescue of Keap1 downregulation by MLN-4924 or bortezomib pretreatment” value at Keap1 [2] (OCI-AML2, 1 h pretreatment, then compound 7 h) is “did not rescue Keap1 downregulation”. The “concentration at which Keap1 accumulates in the insoluble phase (as low as)” value at Keap1 [2] (OCI-AML2 cells) stood at 500 nM. Besides, the EC50 on Keap1 [2] (OCI-AML2 cells, 20 h treatment, read-out: EC50 (Keap1 downregulation, WB)) came out at 102 nM.
